This passage reports ring closure, isolated yield results from paper PMC10722513.

A short description of the series: Au(I)-catalysed intramolecular Trp C2-H alkynylation: peptide-EBX (4-ethynylbenzoyl bis-CF3-benziodoxole on Lys side chain or N-terminus) + AuCl·Me2S, open flask. Conditions: HFIP, 5.0 mM, 25.0 °C, 0.17 h.

As to `CC[C@H](C)[C@@H]1NC(=O)[C@@H]2CCCN2C(=O)[C@H]([C@@H](C)CC)NC(=O)[C@@H]2CCCN2C(=O)[C@H](Cc2ccccc2)NC(=O)[C@H](C)NC(=O)c2ccc(cc2)C#Cc2[nH]c3ccccc3c2C[C@@H](C(N)=O)NC1=O` [EBX-A-F-P-I-P-I-W-NH2], the ring closure, isolated yield (from CC[C@H](C)[C@H](NC(=O)[C@@H]1CCCN1C(=O)[C@@H](NC(=O)[C@@H]1CCCN1C(=O)[C@H](Cc1ccccc1)NC(=O)[C@H](C)NC(=O)c1ccc(C#CI2OC(C(F)(F)F)(C(F)(F)F)c3ccccc32)cc1)[C@@H](C)CC)C(=O)N[C@@H](Cc1c[nH]c2ccccc12)C(N)=O, 30-membered ring) was 53%.
For the compound `CC(=O)N[C@H]1CCCCNC(=O)c2ccc(cc2)C#Cc2c(c3ccccc3n2C)C[C@@H](C(=O)O)NC(=O)[C@H](Cc2ccccc2)NC(=O)[C@H](C)NC(=O)[C@H](CC(C)C)NC1=O` [Ac-K(EBX)-L-A-F-W(1-Me)-OH], the ring closure, isolated yield (from CC(=O)N[C@@H](CCCCNC(=O)c1ccc(C#CI2OC(C(F)(F)F)(C(F)(F)F)c3ccccc32)cc1)C(=O)N[C@@H](CC(C)C)C(=O)N[C@@H](C)C(=O)N[C@@H](Cc1ccccc1)C(=O)N[C@@H](Cc1cn(C)c2ccccc12)C(=O)O, 28-membered ring) amounted to 63%.
Turning to `C#CC[C@@H]1NC(=O)[C@@H](NC(C)=O)CCCCNC(=O)c2ccc(cc2)C#Cc2[nH]c3ccccc3c2C[C@@H](C(=O)O)NC(=O)[C@H](Cc2ccccc2)NC(=O)[C@H](C)NC1=O` [Ac-K(EBX)-Pra-A-F-W-OH], the ring closure, isolated yield (from C#CC[C@H](NC(=O)[C@H](CCCCNC(=O)c1ccc(C#CI2OC(C(F)(F)F)(C(F)(F)F)c3ccccc32)cc1)NC(C)=O)C(=O)N[C@@H](C)C(=O)N[C@@H](Cc1ccccc1)C(=O)N[C@@H](Cc1c[nH]c2ccccc12)C(=O)O, 28-membered ring) worked out at 57%.
On to `CC(C)C[C@@H]1NC(=O)[C@H](CC(=O)O)NC(=O)[C@H](CC(=O)O)NC(=O)[C@H](Cc2ccccc2)NC(=O)[C@H](Cc2ccccc2)NC(=O)CNC(=O)c2ccc(cc2)C#Cc2[nH]c3ccccc3c2C[C@@H](C(=O)N[C@@H](Cc2ccccc2)C(=O)N[C@H](C(=O)N[C@@H](C)C(N)=O)C(C)C)NC(=O)[C@H](Cc2ccc(O)cc2)NC1=O` [EBX-G-F-F-D-D-L-Y-W-F-V-A-NH2], for which, under “from CC(C)C[C@H](NC(=O)[C@H](CC(=O)O)NC(=O)[C@H](CC(=O)O)NC(=O)[C@H](Cc1ccccc1)NC(=O)[C@H](Cc1ccccc1)NC(=O)CNC(=O)c1ccc(C#CI2OC(C(F)(F)F)(C(F)(F)F)c3ccccc32)cc1)C(=O)N[C@@H](Cc1ccc(O)cc1)C(=O)N[C@@H](Cc1c[nH]c2ccccc12)C(=O)N[C@@H](Cc1ccccc1)C(=O)N[C@H](C(=O)N[C@@H](C)C(N)=O)C(C)C, 33-membered ring”, the ring closure, isolated yield stood at 56%.
For the compound `CC(=O)N[C@@H](CCC(=O)O)C(=O)N[C@H](C(=O)N[C@@H](Cc1ccccc1)C(=O)N[C@H]1CCCCNC(=O)c2ccc(cc2)C#Cc2[nH]c3ccccc3c2C[C@@H](C(=O)N[C@@H](C)C(=O)N[C@@H](CC(C)C)C(=O)N[C@@H](CC(C)C)C(=O)N[C@@H](Cc2c[nH]c3ccccc23)C(N)=O)NC(=O)[C@H](CC(C)C)NC(=O)[C@H](CC(=O)O)NC1=O)[C@@H](C)O` [Ac-E-T-F-K(EBX)-D-L-W-A-L-L-W-NH2], the ring closure, isolated yield (from CC(=O)N[C@@H](CCC(=O)O)C(=O)N[C@H](C(=O)N[C@@H](Cc1ccccc1)C(=O)N[C@@H](CCCCNC(=O)c1ccc(C#CI2OC(C(F)(F)F)(C(F)(F)F)c3ccccc32)cc1)C(=O)N[C@@H](CC(=O)O)C(=O)N[C@@H](CC(C)C)C(=O)N[C@@H](Cc1c[nH]c2ccccc12)C(=O)N[C@@H](C)C(=O)N[C@@H](CC(C)C)C(=O)N[C@@H](CC(C)C)C(=O)N[C@@H](Cc1c[nH]c2ccccc12)C(N)=O)[C@@H](C)O, 25-membered ring) was 37%.
For the compound `CC(=O)N[C@H]1CCCCNC(=O)c2ccc(cc2)C#Cc2[nH]c3ccccc3c2C[C@@H](C(=O)O)NC(=O)[C@H](Cc2ccccc2)NC(=O)[C@H](C)NC(=O)[C@H](CCCNC(=N)N)NC1=O` [Ac-K(EBX)-R-A-F-W-OH], under “from CC(=O)N[C@@H](CCCCNC(=O)c1ccc(C#CI2OC(C(F)(F)F)(C(F)(F)F)c3ccccc32)cc1)C(=O)N[C@@H](CCCNC(=N)N)C(=O)N[C@@H](C)C(=O)N[C@@H](Cc1ccccc1)C(=O)N[C@@H](Cc1c[nH]c2ccccc12)C(=O)O, 28-membered ring”, the ring closure, isolated yield was found to be 42%.
Regarding `C[C@@H]1NC(=O)[C@H](CC(=O)O)NC(=O)c2ccc(cc2)C#Cc2c(c3ccccc3n2C)C[C@@H](C(N)=O)NC(=O)[C@H](CCC(=O)O)NC(=O)CNC(=O)[C@H]([C@@H](C)O)NC(=O)[C@H](CCC(=O)O)NC1=O` [EBX-D-A-E-T-G-E-W(1-Me)-NH2], the ring closure, isolated yield (from C[C@H](NC(=O)[C@H](CC(=O)O)NC(=O)c1ccc(C#CI2OC(C(F)(F)F)(C(F)(F)F)c3ccccc32)cc1)C(=O)N[C@@H](CCC(=O)O)C(=O)N[C@H](C(=O)NCC(=O)N[C@@H](CCC(=O)O)C(=O)N[C@@H](Cc1cn(C)c2ccccc12)C(N)=O)[C@@H](C)O, 30-membered ring) was found to be 86%.
With `CC(=O)N[C@H]1CCCCNC(=O)c2ccc(cc2)C#Cc2[nH]c3ccccc3c2C[C@@H](C(=O)O)NC(=O)[C@H](CC(C)C)NC1=O` [Ac-K(EBX)-L-W-OH], the ring closure, isolated yield (from CC(=O)N[C@@H](CCCCNC(=O)c1ccc(C#CI2OC(C(F)(F)F)(C(F)(F)F)c3ccccc32)cc1)C(=O)N[C@@H](CC(C)C)C(=O)N[C@@H](Cc1c[nH]c2ccccc12)C(=O)O, 22-membered ring) was 40%.
Turning to `CC(=O)N[C@H]1CCCCNC(=O)c2ccc(cc2)C#Cc2[nH]c3ccccc3c2C[C@@H](C(=O)O)NC(=O)[C@H](Cc2ccccc2)NC(=O)[C@H](C)NC(=O)[C@H](CC(C)C)NC1=O` [Ac-K(EBX)-L-A-F-W-OH], for the setting “from CC(=O)N[C@@H](CCCCNC(=O)c1ccc(C#CI2OC(C(F)(F)F)(C(F)(F)F)c3ccccc32)cc1)C(=O)N[C@@H](CC(C)C)C(=O)N[C@@H](C)C(=O)N[C@@H](Cc1ccccc1)C(=O)N[C@@H](Cc1c[nH]c2ccccc12)C(=O)O, 28-membered ring”, the ring closure, isolated yield turned out to be 56%.
Consider `CC(=O)N[C@H](C(=O)N[C@@H](CO)C(=O)N[C@@H](Cc1ccccc1)C(=O)N[C@H]1CCCCNC(=O)c2ccc(cc2)C#Cc2[nH]c3ccccc3c2C[C@@H](C(=O)N[C@@H](C)C(=O)N[C@@H](CC(C)C)C(=O)N[C@@H](CC(C)C)C(=O)N[C@@H](Cc2c[nH]c3ccccc23)C(N)=O)NC(=O)[C@H](Cc2ccc(O)cc2)NC(=O)[C@H](CCC(=O)O)NC1=O)[C@@H](C)O` [Ac-T-S-F-K(EBX)-E-Y-W-A-L-L-W-NH2], for which the ring closure, isolated yield (from CC(=O)N[C@H](C(=O)N[C@@H](CO)C(=O)N[C@@H](Cc1ccccc1)C(=O)N[C@@H](CCCCNC(=O)c1ccc(C#CI2OC(C(F)(F)F)(C(F)(F)F)c3ccccc32)cc1)C(=O)N[C@@H](CCC(=O)O)C(=O)N[C@@H](Cc1ccc(O)cc1)C(=O)N[C@@H](Cc1c[nH]c2ccccc12)C(=O)N[C@@H](C)C(=O)N[C@@H](CC(C)C)C(=O)N[C@@H](CC(C)C)C(=O)N[C@@H](Cc1c[nH]c2ccccc12)C(N)=O)[C@@H](C)O, 25-membered ring) came to 45%.
On to `CC(=O)N[C@H]1CCCCNC(=O)c2ccc(cc2)C#Cc2[nH]c3ccccc3c2C[C@@H](C(=O)O)NC(=O)[C@H](Cc2ccccc2)NC(=O)[C@H](C)NC(=O)[C@H](Cc2ccc(O)cc2)NC1=O` [Ac-K(EBX)-Y-A-F-W-OH], for which the ring closure, isolated yield (from CC(=O)N[C@@H](CCCCNC(=O)c1ccc(C#CI2OC(C(F)(F)F)(C(F)(F)F)c3ccccc32)cc1)C(=O)N[C@@H](Cc1ccc(O)cc1)C(=O)N[C@@H](C)C(=O)N[C@@H](Cc1ccccc1)C(=O)N[C@@H](Cc1c[nH]c2ccccc12)C(=O)O, 28-membered ring) stood at 53%.
As for `CC(=O)N[C@H]1CCCCNC(=O)c2ccc(cc2)C#Cc2[nH]c3ccccc3c2C[C@@H](C(=O)O)NC(=O)[C@H](Cc2ccccc2)NC(=O)[C@H](C)NC(=O)[C@H](CSSC(C)(C)C)NC1=O` [Ac-K(EBX)-C(StBu)-A-F-W-OH], the ring closure, isolated yield (from CC(=O)N[C@@H](CCCCNC(=O)c1ccc(C#CI2OC(C(F)(F)F)(C(F)(F)F)c3ccccc32)cc1)C(=O)N[C@@H](CSSC(C)(C)C)C(=O)N[C@@H](C)C(=O)N[C@@H](Cc1ccccc1)C(=O)N[C@@H](Cc1c[nH]c2ccccc12)C(=O)O, 28-membered ring) was 25%.
In the case of `CC(=O)N[C@H]1CCCCNC(=O)c2ccc(cc2)C#Cc2[nH]c3ccccc3c2C[C@@H](C(=O)O)NC(=O)[C@H](Cc2ccccc2)NC(=O)[C@H](C)NC(=O)[C@H](CC(=O)O)NC1=O` [Ac-K(EBX)-D-A-F-W-OH], under “from CC(=O)N[C@@H](CCCCNC(=O)c1ccc(C#CI2OC(C(F)(F)F)(C(F)(F)F)c3ccccc32)cc1)C(=O)N[C@@H](CC(=O)O)C(=O)N[C@@H](C)C(=O)N[C@@H](Cc1ccccc1)C(=O)N[C@@H](Cc1c[nH]c2ccccc12)C(=O)O, 28-membered ring”, the ring closure, isolated yield worked out at 51%.
`CC(=O)N[C@H]1CCCCNC(=O)c2ccc(cc2)C#Cc2[nH]c3ccccc3c2C[C@@H](C(=O)O)NC(=O)[C@H](Cc2ccccc2)NC(=O)[C@H](C)NC(=O)[C@H](CCC(N)=O)NC1=O` [Ac-K(EBX)-Q-A-F-W-OH]: the ring closure, isolated yield (from CC(=O)N[C@@H](CCCCNC(=O)c1ccc(C#CI2OC(C(F)(F)F)(C(F)(F)F)c3ccccc32)cc1)C(=O)N[C@@H](CCC(N)=O)C(=O)N[C@@H](C)C(=O)N[C@@H](Cc1ccccc1)C(=O)N[C@@H](Cc1c[nH]c2ccccc12)C(=O)O, 28-membered ring) turned out to be 56%.
For `C[C@@H]1NC(=O)[C@H](CC(=O)O)NC(=O)CNC(=O)c2ccc(cc2)C#Cc2c(c3ccccc3n2C)C[C@@H](C(N)=O)NC(=O)[C@H](CCC(=O)O)NC(=O)CNC(=O)[C@H]([C@@H](C)O)NC(=O)[C@H](CCC(=O)O)NC1=O` [EBX-G-D-A-E-T-G-E-W(1-Me)-NH2], the ring closure, isolated yield (from C[C@H](NC(=O)[C@H](CC(=O)O)NC(=O)CNC(=O)c1ccc(C#CI2OC(C(F)(F)F)(C(F)(F)F)c3ccccc32)cc1)C(=O)N[C@@H](CCC(=O)O)C(=O)N[C@H](C(=O)NCC(=O)N[C@@H](CCC(=O)O)C(=O)N[C@@H](Cc1cn(C)c2ccccc12)C(N)=O)[C@@H](C)O, 33-membered ring) amounted to 61%.
